{
  "source": "patent US20090158447A1",
  "about": "“TLR ligand and IL-1 Response-Injured Animal Model” (priority 2004, published 2009)",
  "format_in_all_cases": "cell-based, mouse",
  "key": {"[1]": {"system": "peritoneal macrophages or lung-derived normal cells", "experiment": "Northern blot analysis of IκB-ζ, Bcl-3 and IκB-α expression on TLR/IL-1R stimulation", "conditions": "stimulation for 2 hours, FIG. 1a", "method": "Peritoneal macrophages and lung primary cells were stimulated with 100 ng ml^−1 BLP, 10 μg ml^−1 PGN, 30 ng ml^−1 MALP-2, 100 nM R-848, 3 μM CpG DNA, 10 ng ml^−1 IL-1β, 10 μg ml^−1 LPS, 100 ng ml^−1 flagellin, and 10 ng ml^−1 TNF-α for 2 hours. Total RNA (10 μg) was extracted and subjected to Northern blot analysis for investigating the expression of IκB-ζ, Bcl-3, IκB-α, and β-actin. b. MEFs from wild-type and MyD88-deficient mice were stimulated with 10 ng ml^−1 IL-1β and 10 μg ml^−1 LPS for the indicated periods. Total RNA (10 μg) was extracted and subjected to Northern blot analysis for investigating the expression of IκB-ζ, Cox-2, IP-10, and β-actin.\nWhether IκB-ζ would be induced in response to other TLR ligands was examined based on the fact that stimulation with IL-1 or LPS induces IκB-ζ in macrophage cell lines and fibroblasts, and that IL-1R and the receptor for LPS, TLR4, share the intracellular signaling pathways. […] On the other hand, other IκB family members, IκB-α and Bcl-3, were induced in response to TNF-αas well as a TLR ligand and IL-1. Taken together, unlike IκB-α and Bcl-3, the IκB-ζ induction is specifically detected on the TLR/IL-1R stimulation."}, "[2]": {"system": "peritoneal macrophages", "experiment": "Time-course Northern blot analysis of IκB-ζ induction following LPS stimulation", "conditions": "wild-type peritoneal macrophages, 10 ng ml^−1 LPS, FIG. 3h", "method": "It is a figure showing immune responses in IκB-ζ-deficient cells, and kinetics of IκB-ζ induction. a, b, c, d. Peritoneal macrophages from wild-type and IκB-ζ-deficient mice were cultured with the indicated concentrations of PGN, R-848, CpG DNA in the coexistence of 10 ng ml^−1 LPS, 100 ng ml^−1 BLP, and 30 ng ml^−1 MALP-2, and in the presence of 30 ng ml^−1 IFN-γ for 24 h. Concentrations of IL-6, TNF-α, and NO in the culture supernatants were measured. The indicated values are means±SD of triplicates. “N.D.” means not detected. e. MEFs from wild-type and IκB-ζ-deficient mice were stimulated with 10 ng ml^−1 IL-1 and 10 ng ml^−1 TNF-α. Supernatents were collected for IL-6 analysis by ELISA 24 h later. Indicated values are means±SD of triplicates. “N.D.” means not detected. f. Peritoneal macrophages were stimulated with 10 ng ml^−1 LPS for the indicated periods. Total RNA (5 μg) was extracted and subjected to Northern blot analysis for investigating the expression of IL-6, TNF-α, and β-actin. g. […] Concentrations of IL-6 in the culture supernatants, with or without 10 ng ml^−1 IL-β, were measured by ELISA. […] Two-independent experiments with independently derived wild-type cells were quantitated by Phospholmager and mRNA amount was graphed for the indicated genes in arbitrary units (left for IκB-ζ and IL-6, right for TNF-α) relative to β-actin. […]"}, "[3]": {"system": "RAW 264.7 cells", "experiment": "Luciferase reporter assay of IL-6 and ELAM1 promoters", "conditions": "RAW 264.7 cells transfected with luciferase reporter plasmids, FIG. 4a", "from_the_text": "It is a figure showing the result of an in vitro analysis of IκB-ζ on the IL-6 promoter. a. RAW 264.7 cells were transiently transfected with luciferase reporter constructs of either mouse IL-6 promoter or ELAM1 promoter together with either a control or the IκB-ζ expression plasmid. Luciferase activities were expressed as fold-increase over the background shown by lysates prepared from untransfected cells. Data are representative of three separate experiments. In all three experiments, cells were stimulated with the indicated concentrations of LPS. b. A certain amount of IκB-ζ expression vector was transiently introduced into untreated RAW 264.7 cells with the indicated amount of IL-6 reporter plasmid. Data are representative of three independent experiments. c. […] Precipitated DNA for the IL-6 κB site (left), 3′ region of IL-6 gene (center), or ELAM1 promoter (right) was measured by PCR (ChIP). […]\nReporter plasmids were transiently co-transfected into RAW 264.7 and P19 cells with either control or the IκB-ζ expression vectors by using SUPERFECT transfection reagent (QIAGEN). Luciferase activities of total cell lysates were measured using dual-luciferase reporter assay system (Promega, Maiden, Wis.) according to the method described previously (28, 29) (Nat Immunol. 3, 392-398 (2002); Nat Immunol. 2, 835-841 (2001))."}},
  "data": [
    {"substance": "lipopolysaccharide [LPS]", "values": [
      {"measurement": "IκB-ζ mRNA induction", "setting": "[1]", "result": "strongly induced"},
      {"measurement": "time after stimulation at which IκB-ζ induction reached its maximum level", "setting": "[2]", "result": 120, "unit": "min"},
      {"measurement": "time after stimulation at which IκB-ζ induction was observed", "setting": "[2]", "result": 30, "unit": "min"},
      {"measurement": "activation of both IL-6 and ELAM1 promoters", "setting": "[3]", "result": "dose-dependent manner"}
    ]}
  ]
}
